Values quoted from earlier work as cited in patent publication US20240325431A1, “COMPOSITION FOR PURIFICATION OF BIOFLUIDS” (BEACON MEDCARE (HK) LIMITED, priority 2018, published 2024).

Test system: plasma protein

SMILES | binding rate to plasma protein
CN1C(C(=O)Nc2ccccn2)=C(O)c2sccc2S1(=O)=O [tenoxicam] | 99%
C[C@H]1O[C@@H](O[C@H]2[C@@H](O)C[C@H](O[C@H]3[C@@H](O)C[C@H](O[C@H]4CC[C@@]5(C)[C@H](CC[C@@H]6[C@@H]5CC[C@]5(C)[C@@H](C7=CC(=O)OC7)CC[C@]65O)C4)O[C@@H]3C)O[C@@H]2C)C[C@H](O)[C@@H]1O [digitoxin] | 91%
